Laboratory results taken from ChEMBL document CHEMBL1156695, “The novel primaquine derivatives of N-alkyl, cycloalkyl or aryl urea: synthesis, cytostatic and antiviral activity evaluations” (Eur J Med Chem, 2008).
pEC50, pIC50: −log10 of the molar value. Active and inactive are the calls of the source. The calls are words filed in the database; no cut-off is given here.

Tests used:
[1] = Cytostatic activity against human WI38 cells after 72 hrs by MTT assay; type: cell-based; conditions: WI-38, 72 h
Human betaherpesvirus 5 [2] = experiment: Antiviral activity against HCMV AD169 infected in HEL cells assessed as reduction of virus-induced cytopathogenicity after 3 days; type: functional, organism-based; conditions: Human betaherpesvirus 5, AD169, HEL, 72 h
Human betaherpesvirus 5 [3] = experiment: Antiviral activity against HCMV Davis infected in HEL cells assessed as reduction of virus-induced cytopathogenicity after 3 days; type: functional, organism-based; conditions: Human betaherpesvirus 5, Davis, 72 h
[4] = Cytotoxicity against HEL cells assessed as change in cell morphology; type: cell-based; conditions: human
[5] = Cytotoxicity against HEL cells assessed as reduction in cell growth; type: cell-based; conditions: human
Human alphaherpesvirus 1 = experiment: Antiviral activity against HSV1 infected in HEL cells assessed as reduction of virus-induced cytopathogenicity; type: functional, organism-based
Human alphaherpesvirus 2 = experiment: Antiviral activity against HSV2 infected in HEL cells assessed as reduction of virus-induced cytopathogenicity; type: functional, organism-based
[6] = tested on: Vesicular stomatitis virus; experiment: Antiviral activity against vesicular stomatitis virus infected in HEL cells assessed as reduction of virus-induced cytopathogenicity; type: functional, organism-based
[7] = tested on: Mammalian orthoreovirus 1; experiment: Antiviral activity against Reovirus 1 infected in african green monkey Vero cells assessed as reduction of virus-induced cytopathogenicity; type: functional, organism-based
Human respirovirus 3 = experiment: Antiviral activity against parainfluenza virus 3 infected in african green monkey Vero cells assessed as reduction of virus-induced cytopathogenicity; type: functional, organism-based
Sindbis virus = experiment: Antiviral activity against Sindbis virus infected in african green monkey Vero cells assessed as reduction of virus-induced cytopathogenicity; type: functional, organism-based
Coxsackievirus B4 [8] = experiment: Antiviral activity against Coxsackievirus B4 infected in african green monkey Vero cells assessed as reduction of virus-induced cytopathogenicity; type: functional, organism-based
Punta Toro virus = experiment: Antiviral activity against Punta Toro virus infected in african green monkey Vero cells assessed as reduction of virus-induced cytopathogenicity; type: functional, organism-based
[9] = tested on: Vesicular stomatitis virus; experiment: Antiviral activity against vesicular stomatitis virus infected in HeLa cells assessed as reduction of virus-induced cytopathogenicity; type: functional, organism-based
Coxsackievirus B4 [10] = experiment: Antiviral activity against Coxsackievirus B4 infected in HeLa cells assessed as reduction of virus-induced cytopathogenicity; type: functional, organism-based
[11] = tested on: Respiratory syncytial virus; experiment: Antiviral activity against respiratory syncytial virus infected in HeLa cells assessed as reduction of virus-induced cytopathogenicity; type: functional, organism-based
L1210 = experiment: Cytostatic activity against mouse L1210 cells after 72 hrs by MTT assay; type: functional, cell-based; conditions: L1210, 72 h
CCRF-CEM = experiment: Cytostatic activity against human CEM cells after 72 hrs by MTT assay; type: functional, cell-based
[12] = Cytostatic activity against human Molt4/C8 cells after 72 hrs by MTT assay; type: functional, cell-based; conditions: MOLT-4, 72 h
HeLa = experiment: Cytostatic activity against human HeLa cells after 72 hrs by MTT assay; type: functional, cell-based
MIA PaCa-2 = experiment: Cytostatic activity against human MiaPaCa2 cells after 72 hrs by MTT assay; type: functional, cell-based; conditions: MIA PaCa-2, 72 h
SW-620 = experiment: Cytostatic activity against human SW620 cells after 72 hrs by MTT assay; type: functional, cell-based; conditions: SW-620, 72 h
MCF7 = experiment: Cytostatic activity against human MCF7 cells after 72 hrs by MTT assay; type: functional, cell-based; conditions: MCF7, 72 h
NCI-H460 = experiment: Cytostatic activity against human H460 cells after 72 hrs by MTT assay; type: functional, cell-based; conditions: NCI-H460, 72 h

Structure (SMILES) | pIC50 [1] | pEC50 (Human betaherpesvirus 5 [2]) | pEC50 (Human betaherpesvirus 5 [3]) | MCC [4] | CC50 [5] | Activity (Human alphaherpesvirus 1) | Activity (Human alphaherpesvirus 2) | Activity [6] | Activity [7] | Activity (Human respirovirus 3) | Activity (Sindbis virus) | Activity (Coxsackievirus B4 [8]) | Activity (Punta Toro virus) | Activity [9] | Activity (Coxsackievirus B4 [10]) | Activity [11] | pIC50 (L1210) | pIC50 (CCRF-CEM) | pIC50 [12] | pIC50 (HeLa) | also measured
COc1cc(NC(C)CCCNC(=O)N(C2CCCCC2)C2CCCCC2)c2ncccc2c1 (stereo not drawn) | 4.74 | < 6.10 | < 6.10 | 4 µM | 27 µM | inactive | inactive | inactive | inactive | inactive | inactive | inactive | inactive | inactive | inactive | inactive | 4.82 | 4.89 | 4.44 | 4.64 | pIC50 (MIA PaCa-2): 4.77; pIC50 (SW-620): 4.82; pIC50 (MCF7): 5.05; pIC50 (NCI-H460): 4.68
COc1cc(NC(C)CCCNC(=O)NC2CCCCC2)c2ncccc2c1 (stereo not drawn) | < 4.00 | 4.28 | 4.98 | 100 µM | 94 µM | inactive | inactive | inactive | inactive | inactive | inactive | inactive | inactive | inactive | inactive | inactive | 4.64 | 4.44 | 4.30 | < 4.00 | pIC50 (MIA PaCa-2): 4.42; pIC50 (SW-620): 4.31; pIC50 (MCF7): 4.39; pIC50 (NCI-H460): 4.11
Nc1nc(O)c2ncn(COC(CO)CO)c2n1 [GANCICLOVIR] | – | – | – | > 1580 µM | – | – | – | – | – | – | – | – | – | – | – | – | – | – | – | – | –
COc1cc(NC(C)CCCNC(=O)NC(c2ccccc2)c2ccccc2)c2ncccc2c1 (stereo not drawn) | < 4.00 | < 4.00 | < 4.00 | > 100 µM | > 100 µM | inactive | inactive | inactive | inactive | inactive | inactive | inactive | inactive | inactive | inactive | inactive | < 3.30 | 3.85 | ≤ 3.30 | 4.00 | pIC50 (MIA PaCa-2): 4.00; pIC50 (SW-620): 4.24; pIC50 (MCF7): < 4.00; pIC50 (NCI-H460): < 4.00
COc1cc(NC(C)CCCNC(=O)NCc2ccccc2)c2ncccc2c1 (stereo not drawn) | 4.46 | < 4.70 | 5.12 | 100 µM | 66 µM | inactive | inactive | inactive | inactive | inactive | inactive | inactive | inactive | inactive | inactive | inactive | 4.66 | 4.74 | 4.68 | 4.82 | pIC50 (MIA PaCa-2): 4.68; pIC50 (SW-620): 5.05; pIC50 (MCF7): 4.60; pIC50 (NCI-H460): 4.52
Nc1ccn(C[C@@H](CO)OCP(=O)(O)O)c(=O)n1 [CIDOFOVIR] | – | – | – | > 1270 µM | – | – | – | – | – | – | – | – | – | – | – | – | – | – | – | – | –
